Eight compounds from PMC11345829, “Discovery of Potent Isoquinolinequinone N-Oxides to Overcome Cancer Multidrug Resistance” (Journal of Medicinal Chemistry, 2024) can be followed below.

Structures are written as SMILES.

A word on the GI50: it is the concentration at which growth is held to half of that of the control.

The test system of one assay is DLD1. The assay is described as follows: SRB cell growth inhibition assay. Format: cell-based. To be noted: Homo sapiens, DLD-1, 48 h, colorectal cancer sensitive, mean ± SEM. An excerpt:
(§1) Taking into consideration the promising results of preliminary NCI screening, nine compounds (1, 2, 3, 4, 5, 20, 23, 24, 25) were selected for further screening in two counterpart pairs of sensitive and MDR cell lines. […] Two distinct pairs of counterpart drug-sensitive and MDR human tumor cell lines were used, namely the non-small lung cancer (NSCLC) NCI-H460 (same cell line as in the NCI screen) and its MDR counterpart cell line NCI-H460/R and the colorectal cancer DLD1 and its MDR counterpart cell line DLD1-TxR (Table 3). The screening was performed using the SRB assay, and the GI50 for each compound was determined by interpolation on the attained concentration−response curves and compared with NCI60 screening data (SI, Figures S62−S63; Table S21).
(§2) Two pairs of drug-sensitive and multidrug-resistant (MDR) cell lines from human nonsmall cell lung cancer (NSCLC), NCI-H460 and NCI-H460/R, and colorectal cancer, DLD1 and DLD1-TxR, kindly provided by Dr M. Pešić (Belgrade, Serbia), were used to evaluate the growth inhibition potential of the compounds 1, 2, 3, 4, 5, 20, 23, 24, an 25.[76],[77] Additionally, growth inhibition assays were performed with compound 25 on two other NSCLC cell lines, A549 and NCI-H322, obtained from the American Type Culture Collection (ATCC) and the European Collection of Authenticated Cell Cultures, respectively. The A549 cell line was maintained in Dulbecco’s Modified Eagle Medium (DMEM) supplemented with 4.5 g/L Glucose with UltraGlutamine with sodium pyruvate (Lonza, Basel Stücki, Switzerland), enriched with 10% fetal bovine serum (FBS; Biowest, Nuaillé, France). The lung fibroblast MRC-5 cell line and the remaining NSCLC and colorectal cancer cell lines were cultured in Roswell Park Memorial Institute (RPMI) 1640 (with stable glutamine and 25 mM HEPES) medium (Biowest), supplemented with 10% fetal bovine serum. […] For the sulforhodamine B (SRB) and 3D cell culture assays, the media were supplemented with 5% FBS. The remaining experiments were performed with medium supplemented with 10% FBS.
(§3) Cells were seeded at a previously determined optimal cell concentration (5.0 × 10^4 cells/mL for NSCLC cells and the nontumorigenic MRC-5 cell line and 1.0 × 10^5 cells/mL for colorectal cancer cells) and incubated at 37 °C for 24 h. […] The SRB assay was performed as previously described.[78],[79] Briefly, after fixing cells with 10% (w/v) ice-cold trichloroacetic acid (Merck Life Science), the proteins were stained with 0.4% of SRB (Merck Life Science) in acetic acid (Merck Life Science). Following washing steps in acetic acid, the bound dye was solubilized with 10 mM Tris base solution (Merck Life Science). Absorbance was measured at 510 nm in a multiplate reader (Synergy Mx, Biotek Instruments Inc., Winooski, Vermont, USA) using the Gen5 software (Biotek Instruments Inc.).

For another assay, the system named is NCI-H460. Description: SRB cell growth inhibition assay. As to conditions: Homo sapiens, 48 h, NSCLC sensitive, mean ± SEM. Format: cell-based.
Excerpt: as §1, §2, §3

Another assay concerns DLD1-TxR. The assay is described as follows: SRB cell growth inhibition assay. Format: cell-based, human. As to conditions: for selectivity ratio colorectal cancer: GI50 sensitive DLD1 / GI50 MDR DLD1-TxR; for GI50: Homo sapiens, 48 h, colorectal cancer MDR, mean ± SEM; for GI50 / GI50 concentration range against MDR DLD1-TxR: SRB assay; for GI50 concentration range against MDR DLD1-TxR: in words. On the procedure:
Two distinct pairs of counterpart drug-sensitive and MDR human tumor cell lines were used, namely the non-small lung cancer (NSCLC) NCI-H460 (same cell line as in the NCI screen) and its MDR counterpart cell line NCI-H460/R and the colorectal cancer DLD1 and its MDR counterpart cell line DLD1-TxR (Table 3). The screening was performed using the SRB assay, and the GI50 for each compound was determined by interpolation on the attained concentration−response curves and compared with NCI60 screening data (SI, Figures S62−S63; Table S21).
as §2, §3
Background: In SRB staining, fixed cells bind dye roughly in proportion to their protein.

For the next assay, the system named is COLO-205. Description: NCI60 five-dose GI50. Format: cell-based. To be noted: Homo sapiens, colon. An excerpt: (§4) The concentration−response curve generated enables the determination of three criteria, GI50 (drug concentration at which 50% of cell growth is inhibited), total growth inhibition (TGI) and LC50 (drug concentration at which 50% of tumor cells are killed) which can be used to compare effectiveness against any compound tested in the screen since its inception.
(§5) S2.1 NCI Screening Assay Experimental details
(§6) NCI Screening Assay Experimental: Cancer cell growth assays (NCI60 screening) 5,6 One-dose study: Tested compounds were initially solubilised in DMSO, diluted into RPMI 1640 and 5% fetal bovine serum/L-glutamine, and added to 96-well plates containing cell lines previously cultured for 24 h. After 48 h incubation, the media were removed, and the cells were fixed and stained with sulforhodamine B to determine overall percent growth/ total protein content. Unbound dye was removed with five washes of 1% acetic acid, and the plates were allowed to air dry. The dye was then resolubilised in Tris buffer, and the colorimetric absorbance was measured (515 nm). Growth inhibition was measured relative to the response generated from proliferating cells cultured under identical conditions for 48 h. Data from one-dose experiments pertains to the percentage growth at […]
(§7) Five-dose study: Serial 5 × 10-fold dilution from an initial DMSO stock solution was performed, prior to incubation at each individual concentration (10 nM, 100 nM, 1 μM, 10 μM and 100 μM). Using seven absorbance measurements (time zero (Tz), control growth (C), and test growth in the presence of drug at the five concentration levels (Ti)), the percentage growth was calculated at each of the drug concentrations levels. Percentage growth inhibition was calculated as: [(Ti − Tz)/(C − Tz)] × 100 for concentrations for which Ti ≥ Tz, [(Ti − Tz)/Tz] × 100 for concentrations for which Ti < Tz. Three dose response parameters were calculated for each experimental agent. […]
(§8) was calculated from [(Ti − Tz)/(C − Tz)] × 100 = 50, which is the drug concentration resulting in a 50% reduction in the net protein increase (as measured by sulforhodamine B staining) in control cells during the drug incubation. The drug concentration resulting in total growth inhibition (TGI) was calculated from Ti = Tz. The LC50 (concentration of drug resulting in a 50% reduction in the measured protein at the end of the drug treatment as compared to that at the beginning) indicating a net loss of cells following treatment was calculated from [(Ti − Tz)/Tz] × 100 = −50. Values were calculated for each of these three parameters if the level of activity was reached; however, if the effect was not reached or was exceeded, the value for that parameter was expressed as greater or less than the maximum or minimum concentration tested.

The test system of a further assay is K-562. The assay is described as follows: NCI60 five-dose GI50. Format: cell-based. To be noted: Homo sapiens, K562, five dose; leukemia.
Excerpt: as §4, §5, §6, §7, §8

The test system of the next assay is LOX-IMVI. The assay is described as follows: NCI60 five-dose GI50. Format: cell-based. As to conditions: Homo sapiens, melanoma.
Excerpt: as §4, §5, §6, §7, §8

Another assay concerns MCF-7. Description: NCI60 five-dose GI50. Format: cell-based. As to conditions: Homo sapiens, MCF7, breast.
Excerpt: as §4, §5, §6, §7, §8

The test system of a further assay is NCI-ADR/RES. The assay is described as follows: NCI60 five-dose GI50. Format: cell-based. To be noted: Homo sapiens.
Excerpt: as §4, §5, §6, §7, §8

The next assay relates to OVCAR-3. The assay is described as follows: NCI60 five-dose GI50. Format: cell-based. To be noted: Homo sapiens, ovarian.
Excerpt: as §4, §5, §6, §7, §8

For the next assay, the system named is UACC-62. Description: NCI60 five-dose GI50. Format: cell-based. As to conditions: Homo sapiens, melanoma.
Excerpt: as §4, §5, §6, §7, §8

Take `COC(=O)c1c2c(c(C)[n+]([O-])c1C)C(=O)C=C(NCc1ccccc1)C2=O` [Compound 2]: the values for the GI50 with DLD1, in the assay with NCI-H460 and with DLD1-TxR were 2330 ± 380 nM, 1430 ± 130 nM and 880 ± 90 nM, respectively. The “selectivity ratio colorectal cancer” value in the assay with DLD1-TxR is 2.7. In addition, the “GI50 concentration range against MDR DLD1-TxR” value (from here on “GI50 concentration range”) in the assay on DLD1-TxR is “nanomolar range”.

As for `COC(=O)c1c2c(c(C)[n+]([O-])c1C)C(=O)C(NCc1ccc(F)cc1)=CC2=O` [Compound 4], the GI50 in the assay with COLO-205 is 376 nM; in the assay with K-562, 2430 nM; in the assay with LOX-IMVI, 1940 nM; with MCF-7, 1110 nM; in the assay on NCI-ADR/RES (MDR ovarian), 1680 nM; with OVCAR-3, 319 nM. For the same compound, the GI50 with UACC-62 was 1250 nM; in the assay with DLD1, 5940 ± 300 nM; with NCI-H460, 2700 ± 300 nM; in the assay on DLD1-TxR it was 3130 ± 100 nM. Also, in the assay on DLD1-TxR, the “selectivity ratio colorectal cancer” value worked out at 1.9.

On to `COC(=O)c1c2c(c(C)[n+]([O-])c1C)C(=O)C=C(NCc1ccc(F)cc1)C2=O` [Compound 5], for which the GI50 came out at 260 nM in the assay on COLO-205; 352 nM in the assay on K-562; 226 nM in the assay with LOX-IMVI; 296 nM with MCF-7; 487 nM in the assay on NCI-ADR/RES (MDR ovarian); 240 nM in the assay on OVCAR-3. Moreover, the GI50 in the assay on UACC-62 was 229 nM; in the assay with DLD1 it was 1220 ± 140 nM; with NCI-H460 it was 560 ± 200 nM; with DLD1-TxR, 670 ± 50 nM. Also, the “selectivity ratio colorectal cancer” value in the assay on DLD1-TxR turned out to be 1.8. Also, the “GI50 concentration range” value in the assay on DLD1-TxR is on record as “nanomolar range”.

In the case of `COC(=O)c1c2c(c(C)[n+]([O-])c1C)C(=O)C(NCc1ccc(O)cc1)=CC2=O` [Compound 20], the GI50 in the assay with COLO-205 came out at 579 nM; in the assay on K-562, 1630 nM; in the assay with LOX-IMVI, 938 nM; with MCF-7, 416 nM; in the assay on NCI-ADR/RES (MDR ovarian), 2200 nM; with OVCAR-3, 266 nM. In addition, the GI50 came to 1360 nM in the assay on UACC-62, 9670 ± 1150 nM in the assay with DLD1, 6020 ± 340 nM in the assay on NCI-H460 and 5930 ± 550 nM with DLD1-TxR. The “selectivity ratio colorectal cancer” value in the assay with DLD1-TxR was found to be 1.6.

Consider `COC(=O)c1c2c(c[n+]([O-])c1C)C(=O)C=CC2=O` [Compound 23], for which the GI50 in the assay on COLO-205 came out at 1850 nM; in the assay with K-562, 2510 nM; in the assay with LOX-IMVI it was 1960 nM; with MCF-7, 1650 nM; with NCI-ADR/RES (MDR ovarian), 3270 nM; with OVCAR-3, 320 nM. Further, the GI50 in the assay on UACC-62 was found to be 1810 nM; with DLD1, 30200 ± 4080 nM; in the assay on NCI-H460 it was 38000 ± 8320 nM; in the assay on DLD1-TxR, 14900 ± 680 nM. The “selectivity ratio colorectal cancer” value in the assay with DLD1-TxR was 2.

Turning to `COC(=O)c1c2c(c[n+]([O-])c1C)C(=O)C(NCc1ccccc1)=CC2=O` [Compound 24], the GI50 in the assay on COLO-205 amounted to 330 nM; in the assay on K-562, 620 nM; with LOX-IMVI, 300 nM; in the assay with MCF-7, 200 nM; in the assay with NCI-ADR/RES (MDR ovarian), 310 nM; in the assay with OVCAR-3 it was 270 nM. The GI50 was 350 nM in the assay on UACC-62, 1390 ± 170 nM with DLD1, 750 ± 140 nM with NCI-H460 and 720 ± 30 nM in the assay on DLD1-TxR. Also, the “selectivity ratio colorectal cancer” value with DLD1-TxR came to 1.9. For the same compound, the “GI50 concentration range” value in the assay with DLD1-TxR is listed as “nanomolar range”.

Turning to `COC(=O)c1c2c(c[n+]([O-])c1C)C(=O)C=C(NCc1ccccc1)C2=O` [Compound 25], the GI50 with COLO-205 came out at 160 nM; with K-562, 250 nM; with LOX-IMVI, 190 nM; in the assay with MCF-7, 150 nM; in the assay with NCI-ADR/RES, 227 nM; in the assay on NCI-ADR/RES (MDR ovarian), 230 nM. Further, the GI50 with OVCAR-3 amounted to 48 nM; in the assay with UACC-62 it was 160 nM; in the assay on DLD1 it was 610 ± 110 nM; in the assay on NCI-H460, 350 ± 20 nM; in the assay with DLD1-TxR, 420 ± 30 nM. In addition, the “selectivity ratio colorectal cancer” value in the assay on DLD1-TxR is 1.5. In the assay on DLD1-TxR, the “GI50 concentration range” value is listed as “nanomolar range”.

Turning to `COc1cccc2c1C(=O)c1c(O)c3c(c(O)c1C2=O)C[C@@](O)(C(=O)CO)C[C@@H]3O[C@H]1C[C@H](N)[C@H](O)[C@H](C)O1` [doxorubicin, reference compound], the concentration for 50% growth inhibition (GI50) in the assay with NCI-H460 came out at 30 ± 10 nM.
